Legend:
Format in all cases: cell-based
[1] = molecular target: T1, N-cadherin (Homo sapiens, UniProt P19022); test: LN-229 glioblastoma cell adhesion to N-cadherin substrate; conditions: dose of 1 mM, 2 h adhesion
T1 construct: Fc (C); purchased R&D Systems
Protocol: (§1) Sterile 35 mm tissue culture dishes were coated with nitrocellulose in methanol and allowed to dry. Distinct spots, containing 50 ng of either purified Laminin (Sigma) or N-cadherin-Fc (R&D Systems), were made by spotting 10 μl of protein solution on the nitrocellulose-coated tissue culture dishes. Each dish contained two distinct spots of both Laminin and N-cadherin-Fc. After a 20-min incubation at room temperature, the protein solutions were aspirated. Remaining binding sites on the nitrocellulose were blocked with 2% BSA in PBS, and the dishes were rinsed with DMEM (Invitrogen).
(§2) LN-229 (American Type Culture Collection, Manassus, Va.) cells plated the previous day in 100 mm tissue culture dishes and grown to 80% confluence were released with 2 mM EDTA in CMF. 4×10^5 cells were added to each tissue culture dish in the presence of N-cadherin peptidomimetic small molecules, reconstituted in either DMSO or 0.3% cyclodextrin, and diluted in DMEM supplemented with 10% fetal bovine serum (HyClone). […]
(§3) Adherent cells were detected by phase contrast light microscopy using a 20× objective on a Nikon TE-200 inverted microscope. […] The number of adherent cells per image was determined using threshold parameters in MetaMorph that highlighted individual cells that spread on the substrate spots. […] Data from control and experimental conditions were evaluated using the same thresholding parameters. […]

[2] = molecular target: T1, N-cadherin; test: RGC neurite outgrowth on N-cadherin substrate (antagonist screen); conditions: ADH-1 vs vehicle control (FIG. 16A)
Protocol: Sterile 35 mm tissue culture dishes for retinal explants were coated with nitrocellulose in methanol and allowed to dry, before spreading 0.04-0.045 μg/plate of human N-cadherin-Fc (R&D Systems, Minneapolis, Minn.) across the center of each dish. Remaining binding sites on the nitrocellulose were blocked with 2% bovine serum albumin (BSA; Sigma, St. Louis, Mo.) in calcium/magnesium free phosphate buffer (CMF), and the dishes were rinsed with RPMI-1640 medium (HyClone, Logan, Utah). Cultures of retinal explants from embryonic day 8 chick were made as previously described in. Retinal explants were grown in RPMI-1640, 10% fetal bovine serum (HyClone), 2% chick serum (Invitrogen, Carlsbad, Calif.), 100 U/ml penicillin, 0.1 mg/ml streptomycin and 0.025 μg/ml amphotericin (Sigma). […] Neurite outgrowth was evaluated approximately 20 hours after plating. […] If outgrowth was affected, subsequent experiments determined the minimum concentration to affect outgrowth. […]
Neurite outgrowth was examined on a Nikon TE-200 inverted microscope (Tokyo, Japan), using a 10× objective. […] Subsequently measurements of neurite length and density were quantitated using the images. Length of the five longest neurites per explant was measured using MetaMorph version 6.3r4 (Molecular Devices, Downington Pa.). […] Control and experimental conditions were analyzed using the same thresholding parameters. […]

[3] = tested on: Laminin; test: LN-229 glioblastoma cell adhesion to Laminin substrate (specificity control); conditions: 1 mM ADH-1, compared to control
Protocol: as §1, §2, §3

T1 sequence (P19022 with tags, fused parts or gaps limits assumed): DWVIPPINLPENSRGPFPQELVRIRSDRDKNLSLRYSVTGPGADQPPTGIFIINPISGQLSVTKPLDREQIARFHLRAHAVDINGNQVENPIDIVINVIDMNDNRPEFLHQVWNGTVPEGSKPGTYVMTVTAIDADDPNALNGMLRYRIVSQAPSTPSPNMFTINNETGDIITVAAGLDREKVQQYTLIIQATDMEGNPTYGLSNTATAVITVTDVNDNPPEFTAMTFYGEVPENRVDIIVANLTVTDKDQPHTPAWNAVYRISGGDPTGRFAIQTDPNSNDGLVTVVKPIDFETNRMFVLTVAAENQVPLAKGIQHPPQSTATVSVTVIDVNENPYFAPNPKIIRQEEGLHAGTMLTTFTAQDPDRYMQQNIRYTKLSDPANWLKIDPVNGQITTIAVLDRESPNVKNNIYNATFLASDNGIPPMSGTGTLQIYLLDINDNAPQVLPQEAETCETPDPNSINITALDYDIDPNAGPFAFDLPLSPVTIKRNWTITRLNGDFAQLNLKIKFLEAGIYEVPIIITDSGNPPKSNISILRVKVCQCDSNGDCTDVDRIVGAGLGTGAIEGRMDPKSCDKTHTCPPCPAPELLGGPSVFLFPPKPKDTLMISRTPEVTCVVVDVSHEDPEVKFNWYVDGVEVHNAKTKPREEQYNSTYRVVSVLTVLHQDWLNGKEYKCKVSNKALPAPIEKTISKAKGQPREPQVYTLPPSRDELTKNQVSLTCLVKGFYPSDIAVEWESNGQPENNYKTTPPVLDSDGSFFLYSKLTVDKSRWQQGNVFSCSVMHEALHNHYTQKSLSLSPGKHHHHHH

SMILES: CC(=O)N[C@H]1CSSC[C@@H](C(N)=O)NC(=O)[C@H](C(C)C)NC(=O)[C@H](C)NC(=O)[C@H](Cc2c[nH]cn2)NC1=O [ADH-1, N-Ac-CHAVC-NH2]
- adhesion of LN-229 cells to an N-cadherin substrate [1]: 46 % of control
- effect on RGC neurite outgrowth on a substrate of N-cadherin [2]: eliminate RGC neurite outgrowth
- LN-229 adhesion to Laminin [3]: unaffected

— patent publication US9599603B2, “Methods and compositions for modulating adhesion and migration of cadherin expressing cells” (Case Western Reserve University, priority 2008, dated 2017)
